From the NIST ThermoML archive (doi:10.1021/je100256w)
Numbers after ± are expanded uncertainties.

Assay: cn = amount concentration of the nth substance listed, in mol/dm3
Conditions: 101 kPa, Liquid, Dip Cell

O=C([O-])c1ccccc1.[Na+] [sodium benzoate] + O
electrical conductivity [S/m]
Conditions | 298 K | 303 K | 308 K | 313 K
c1 = 1.98e-05 | 1.95e-05 ± 6.8e-07 | 1.613e-05 ± 9e-08 | 1.97e-05 ± 6.1e-07 | 2.22e-05 ± 5.1e-07
c1 = 3.92e-05 | 3.33e-05 ± 3.8e-07 | 3.53e-05 ± 3.8e-07 | 3.66e-05 ± 7.1e-07 | 4.21e-05 ± 1e-06
c1 = 5.82e-05 | 4.76e-05 ± 9.4e-07 | 5.11e-05 ± 7.7e-07 | 5.48e-05 ± 9.2e-07 | 5.98e-05 ± 1.1e-06
c1 = 7.69e-05 | 5.86e-05 ± 1.2e-06 | 6.55e-05 ± 9.7e-07 | 6.76e-05 ± 1.3e-06 | 7.77e-05 ± 1.9e-06
c1 = 9.52e-05 | 7.22e-05 ± 1.8e-06 | 7.97e-05 ± 1.6e-06 | 8.72e-05 ± 1.4e-06 | 9.3e-05 ± 1.3e-06
c1 = 0.0001221 | 8.72e-05 ± 2.2e-06 | 9.91e-05 ± 2.1e-06 | 0.000107 ± 1.8e-06 | 0.000116 ± 1.7e-06
c1 = 0.0001567 | 0.00011 ± 2.5e-06 | 0.000121 ± 2.4e-06 | 0.000133 ± 2.3e-06 | 0.000143 ± 2.1e-06
c1 = 0.00019 | 0.0001285 ± 7.8e-07 | 0.00013 ± 2.9e-06 | 0.000157 ± 3.8e-06 | 0.000167 ± 2.2e-06
c1 = 0.0002222 | 0.000145 ± 3.4e-06 | 0.000161 ± 3.4e-06 | 0.000178 ± 3e-06 | 0.00019 ± 2.1e-06
c1 = 0.0002533 | 0.000161 ± 2.9e-06 | 0.000175 ± 3.8e-06 | 0.000197 ± 3.1e-06 | 0.0002038 ± 1.7e-06
c1 = 0.0002906 | 0.00018 ± 3.9e-06 | 0.000199 ± 2.8e-06 | 0.000206 ± 2.4e-06 | 0.000221 ± 3.6e-06
c1 = 0.0003264 | 0.000198 ± 2.3e-06 | 0.000203 ± 2.8e-06 | 0.000224 ± 4.2e-06 | 0.000243 ± 3.8e-06
c1 = 0.0003607 | 0.000199 ± 2.8e-06 | 0.000217 ± 4.6e-06 | 0.000243 ± 4.7e-06 | 0.000262 ± 4.2e-06
c1 = 0.0004 | 0.000216 ± 4e-06 | 0.000235 ± 4.7e-06 | 0.000261 ± 5.3e-06 | 0.000285 ± 5e-06
c1 = 0.0004375 | 0.000231 ± 4.9e-06 | 0.000254 ± 5.4e-06 | 0.000284 ± 5.5e-06 | 0.000307 ± 4.9e-06
c1 = 0.0004791 | 0.000245 ± 5e-06 | 0.000271 ± 6.1e-06 | 0.000304 ± 6.2e-06 | 0.000332 ± 5.5e-06
c1 = 0.000524 | 0.000266 ± 4.7e-06 | 0.000291 ± 6.2e-06 | 0.000326 ± 6.6e-06 | 0.000354 ± 5.9e-06
c1 = 0.0005663 | 0.000293 ± 4.6e-06 | 0.000307 ± 4.8e-06 | 0.000338 ± 7e-06 | 0.000375 ± 7.3e-06
c1 = 0.0006063 | 0.000297 ± 4.9e-06 | 0.000324 ± 6.7e-06 | 0.000362 ± 6.9e-06 | 0.00039 ± 6.2e-06
c1 = 0.0006532 | 0.000314 ± 6.2e-06 | 0.000341 ± 7e-06 | 0.000381 ± 7.3e-06 | 0.000412 ± 6.6e-06
c1 = 0.0007055 | 0.000326 ± 6.3e-06 | 0.00036 ± 7e-06 | 0.000393 ± 8.2e-06 | 0.000439 ± 9.2e-06
c1 = 0.0007616 | 0.000349 ± 6.6e-06 | 0.000379 ± 8.1e-06 | 0.000428 ± 8.6e-06 | 0.000462 ± 7.5e-06
c1 = 0.0008131 | 0.000366 ± 6.8e-06 | 0.000398 ± 8.3e-06 | 0.000446 ± 9.2e-06 | 0.000486 ± 8.2e-06
c1 = 0.0008669 | 0.000381 ± 6.8e-06 | 0.000414 ± 8.5e-06 | 0.000463 ± 9.6e-06 | 0.000507 ± 9e-06
c1 = 0.0009218 | 0.000398 ± 7.2e-06 | 0.000432 ± 8.8e-06 | 0.000483 ± 9.8e-06 | 0.000526 ± 9.2e-06
c1 = 0.000977 | 0.000412 ± 6.2e-06 | 0.000443 ± 8.5e-06 | 0.000493 ± 1.1e-05 | 0.000547 ± 1.1e-05
c1 = 0.001027 | 0.000431 ± 5.6e-06 | 0.000456 ± 8.7e-06 | 0.000514 ± 1.1e-05 | 0.000563 ± 1e-05

Cc1ccc(S(=O)(=O)[O-])cc1.[Na+] [sodium p-toluenesulfonate] + O
electrical conductivity [S/m]
Conditions | 298 K | 303 K | 308 K | 313 K
c1 = 1.98e-05 | 1.97e-05 ± 1.8e-07 | 1.898e-05 ± 1.2e-07 | 2.03e-05 ± 3.8e-07 | 2.26e-05 ± 4.7e-07
c1 = 3.92e-05 | 3.417e-05 ± 2.4e-07 | 3.49e-05 ± 4.9e-07 | 3.87e-05 ± 7.9e-07 | 4.25e-05 ± 7.3e-07
c1 = 5.83e-05 | 4.83e-05 ± 5.3e-07 | 5.03e-05 ± 7.2e-07 | 5.5e-05 ± 1.1e-06 | 6.1e-05 ± 1.3e-06
c1 = 7.69e-05 | 6.1e-05 ± 7.5e-07 | 6.43e-05 ± 1.1e-06 | 7.18e-05 ± 1.6e-06 | 7.97e-05 ± 1.5e-06
c1 = 9.52e-05 | 7.34e-05 ± 9.9e-07 | 7.77e-05 ± 1.5e-06 | 8.74e-05 ± 2e-06 | 9.66e-05 ± 1.9e-06
c1 = 0.0001132 | 8.47e-05 ± 1.3e-06 | 9.1e-05 ± 1.7e-06 | 0.000101 ± 2.3e-06 | 0.000113 ± 2.4e-06
c1 = 0.0001308 | 9.61e-05 ± 1.7e-06 | 0.000104 ± 2e-06 | 0.000115 ± 2.5e-06 | 0.000128 ± 2.6e-06
c1 = 0.0001481 | 0.000107 ± 2e-06 | 0.000117 ± 2.1e-06 | 0.000127 ± 2.7e-06 | 0.000142 ± 3.1e-06
c1 = 0.0001651 | 0.000117 ± 2.4e-06 | 0.000129 ± 2.4e-06 | 0.00014 ± 2.8e-06 | 0.000156 ± 3.4e-06
c1 = 0.0001818 | 0.000127 ± 2.5e-06 | 0.000139 ± 2.6e-06 | 0.000152 ± 3.1e-06 | 0.000169 ± 3.5e-06
c1 = 0.0001982 | 0.000137 ± 2.5e-06 | 0.000149 ± 2.8e-06 | 0.000164 ± 3.4e-06 | 0.000181 ± 3.6e-06
c1 = 0.0002143 | 0.000147 ± 2.9e-06 | 0.000161 ± 3e-06 | 0.000175 ± 3.5e-06 | 0.000194 ± 3.3e-06
c1 = 0.0002456 | 0.000164 ± 3.3e-06 | 0.000179 ± 3.4e-06 | 0.000196 ± 2.7e-06 | 0.000203 ± 2.2e-06
c1 = 0.0002609 | 0.00017 ± 3.4e-06 | 0.000188 ± 2.4e-06 | 0.000192 ± 2.8e-06 | 0.000214 ± 4.5e-06
c1 = 0.0002759 | 0.00018 ± 3.5e-06 | 0.000196 ± 2.3e-06 | 0.000201 ± 3e-06 | 0.000224 ± 4.7e-06
c1 = 0.0002906 | 0.0001884 ± 1.2e-06 | 0.000192 ± 2.3e-06 | 0.000209 ± 4.4e-06 | 0.000234 ± 5e-06
c1 = 0.0003051 | 0.0001964 ± 1.3e-06 | 0.0002 ± 2.5e-06 | 0.000219 ± 4.4e-06 | 0.000242 ± 4.9e-06
c1 = 0.0003193 | 0.000203 ± 2.2e-06 | 0.000208 ± 2.7e-06 | 0.000228 ± 4.6e-06 | 0.000253 ± 5e-06
c1 = 0.0003333 | 0.000196 ± 3.2e-06 | 0.000215 ± 4.2e-06 | 0.000236 ± 4.6e-06 | 0.00026 ± 5.1e-06
c1 = 0.0003471 | 0.000201 ± 4.5e-06 | 0.000222 ± 4.4e-06 | 0.000243 ± 4.9e-06 | 0.000269 ± 5.3e-06
c1 = 0.0003673 | 0.000206 ± 4.7e-06 | 0.000232 ± 5e-06 | 0.000254 ± 5.2e-06 | 0.000281 ± 5.6e-06
c1 = 0.0003871 | 0.000219 ± 4.7e-06 | 0.000241 ± 4.9e-06 | 0.000267 ± 5.4e-06 | 0.000293 ± 5.5e-06
c1 = 0.0004064 | 0.000228 ± 4.8e-06 | 0.000251 ± 5e-06 | 0.000276 ± 5.6e-06 | 0.000305 ± 5.9e-06
c1 = 0.0004252 | 0.000236 ± 5e-06 | 0.000259 ± 5.2e-06 | 0.000286 ± 5.8e-06 | 0.000315 ± 6.1e-06
c1 = 0.0004436 | 0.000242 ± 5.2e-06 | 0.000267 ± 5.5e-06 | 0.000295 ± 6.1e-06 | 0.000326 ± 6.4e-06
c1 = 0.0004615 | 0.000249 ± 4.9e-06 | 0.000274 ± 5.6e-06 | 0.000304 ± 6.4e-06 | 0.000336 ± 6.5e-06
c1 = 0.0004791 | 0.000258 ± 5.3e-06 | 0.000283 ± 5.6e-06 | 0.000313 ± 6.1e-06 | 0.000342 ± 6.2e-06
c1 = 0.0004962 | 0.000265 ± 5.9e-06 | 0.000293 ± 5.9e-06 | 0.000321 ± 6e-06 | 0.00035 ± 6.2e-06
c1 = 0.000513 | 0.000271 ± 6.1e-06 | 0.0003 ± 6.2e-06 | 0.00033 ± 6.2e-06 | 0.000359 ± 6.1e-06
